We go through ten compounds from patent US20080234262A1 (Wyeth, priority 2007, published 2008).

One experiment deals with breast line MDA468. As to the kind of experiment: In vitro cell culture growth assay (MTS), MDA468. In kind it is cell-based, human. Particulars: Homo sapiens, 72 h, MDA468 cells, three days after drug treatment. The method in brief: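 Three-day drug treatment starting 1 day post-plating; viable cells quantified via MTS metabolism (A490); effect normalised to in-plate vehicle controls as % growth.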

The next experiment concerns prostate line LNCap. Put plainly: In vitro cell culture growth assay (MTS), LNCap.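 Further: viable cell density read by absorbance at 490 nm, growth expressed as percent of vehicle-treated cells on the same plate.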 Type of experiment: cell-based, human. Particulars: Homo sapiens, LNCaP, 72 h, LNCap cells, three days after drug treatment.
The next experiment has as its target PI3K (Homo sapiens, UniProt P42336). As to the kind of experiment: Fluorescence polarization assay for PI3K.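 Further: PI3K kinase reaction on PIP2 with ATP, 30-60 min, product sensed by GST-GRP with red probe in fluorescence polarization (mP), controls without enzyme and at zero time.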 Type of experiment: biochemical. The settings on record: PI3Kα; read-out: PI3Kα IC50.

Molecules are shown by their SMILES. A value given as a limit tells only on which side of the number the result lay.

Chain of PI3K (P42336 whole entry): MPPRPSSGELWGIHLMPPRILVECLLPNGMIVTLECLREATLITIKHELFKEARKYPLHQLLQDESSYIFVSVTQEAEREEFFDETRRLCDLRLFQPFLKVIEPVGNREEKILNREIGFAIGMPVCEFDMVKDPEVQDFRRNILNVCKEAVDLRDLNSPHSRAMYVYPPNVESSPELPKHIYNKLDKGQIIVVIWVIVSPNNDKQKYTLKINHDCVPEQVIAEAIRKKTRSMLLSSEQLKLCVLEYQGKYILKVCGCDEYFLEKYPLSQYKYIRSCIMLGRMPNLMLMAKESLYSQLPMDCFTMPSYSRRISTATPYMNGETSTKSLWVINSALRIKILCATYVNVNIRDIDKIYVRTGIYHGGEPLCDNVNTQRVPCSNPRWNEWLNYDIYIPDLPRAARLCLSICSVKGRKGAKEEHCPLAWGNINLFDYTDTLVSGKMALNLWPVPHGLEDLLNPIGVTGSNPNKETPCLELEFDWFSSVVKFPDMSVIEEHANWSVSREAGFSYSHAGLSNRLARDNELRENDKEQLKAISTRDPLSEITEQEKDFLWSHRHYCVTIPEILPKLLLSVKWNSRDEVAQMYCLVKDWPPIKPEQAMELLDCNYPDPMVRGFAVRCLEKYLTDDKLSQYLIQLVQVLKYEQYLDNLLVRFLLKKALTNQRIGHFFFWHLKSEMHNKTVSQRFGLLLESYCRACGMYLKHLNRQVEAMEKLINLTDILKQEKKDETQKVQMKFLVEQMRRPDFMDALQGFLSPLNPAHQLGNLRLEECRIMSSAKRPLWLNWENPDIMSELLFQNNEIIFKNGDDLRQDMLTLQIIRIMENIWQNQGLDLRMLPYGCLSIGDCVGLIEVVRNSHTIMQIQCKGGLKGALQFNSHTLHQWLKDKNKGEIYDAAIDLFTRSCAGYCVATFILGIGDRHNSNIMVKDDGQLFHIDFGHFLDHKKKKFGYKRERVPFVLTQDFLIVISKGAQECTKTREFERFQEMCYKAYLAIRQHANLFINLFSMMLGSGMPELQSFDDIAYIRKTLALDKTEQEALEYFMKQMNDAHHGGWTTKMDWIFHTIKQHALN
Chain of PI3K (P27986 whole entry partner): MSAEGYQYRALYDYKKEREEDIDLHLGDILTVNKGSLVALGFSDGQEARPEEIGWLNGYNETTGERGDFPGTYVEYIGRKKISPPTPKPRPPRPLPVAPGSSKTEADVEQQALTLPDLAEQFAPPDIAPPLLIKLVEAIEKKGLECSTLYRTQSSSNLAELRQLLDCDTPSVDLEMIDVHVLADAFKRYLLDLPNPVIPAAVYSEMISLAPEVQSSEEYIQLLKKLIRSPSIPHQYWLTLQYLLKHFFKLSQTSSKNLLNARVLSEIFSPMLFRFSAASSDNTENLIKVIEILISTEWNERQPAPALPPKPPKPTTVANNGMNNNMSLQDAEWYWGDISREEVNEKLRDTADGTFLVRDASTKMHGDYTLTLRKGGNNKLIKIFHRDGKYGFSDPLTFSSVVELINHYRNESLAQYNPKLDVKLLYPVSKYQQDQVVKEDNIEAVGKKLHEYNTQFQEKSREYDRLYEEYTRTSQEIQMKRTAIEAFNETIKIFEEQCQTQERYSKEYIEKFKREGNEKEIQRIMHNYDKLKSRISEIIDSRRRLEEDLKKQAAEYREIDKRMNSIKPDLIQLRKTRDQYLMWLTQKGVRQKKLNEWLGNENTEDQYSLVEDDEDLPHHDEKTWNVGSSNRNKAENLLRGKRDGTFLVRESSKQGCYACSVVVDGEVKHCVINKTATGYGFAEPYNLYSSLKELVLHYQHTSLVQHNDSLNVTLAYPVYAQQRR

In the case of `O=CN1CCC(n2ncc3c(N4CCOCC4)nc(-c4ccc5[nH]ccc5c4)nc32)CC1` [Compound 518, 4-[6-(1H-indol-5-yl)-4-morpholin-4-yl-1H-pyrazolo[3,4-d]pyrimidin-1-yl]piperidine-1-carbaldehyde], the IC50 with breast line MDA468 is 3 µM; in the experiment with prostate line LNCap, 1 µM; at PI3K, 2.8 µM.
Consider `CCOC(=O)Nc1ccc(-c2nc(N3CCOCC3)c3cnn(C4CCN(C(=O)c5ccccc5)CC4)c3n2)cc1` [Example 383, Ethyl {4-[1-(1-benzoylpiperidin-4-yl)-4-morpholin-4-yl-1H-pyrazolo[3,4-d]pyrimidin-6-yl]phenyl}carbamate], for which the IC50 in the experiment on breast line MDA468 was determined as 4.3 µM; with prostate line LNCap, 0.9 µM; at PI3K, 1.58 µM.
As for `O=C(NCCF)Nc1ccc(-c2nc(N3CCOCC3)c3cnn(C4CCNCC4)c3n2)cc1` [Compound 774, 1-(2-fluoroethyl)-3-[4-(4-morpholin-4-yl-1-piperidin-4-yl-1H-pyrazolo[3,4-d]pyrimidin-6-yl)phenyl]urea], the IC50 in the experiment on breast line MDA468 amounted to 1.05 µM; in the experiment on prostate line LNCap it was 2.3 µM; on PI3K, 0.436 µM.
As for `CNC(=O)Nc1ccc(-c2nc(N3CCOCC3)c3cnn(C4CCN(Cc5ccccn5)CC4)c3n2)cc1` [Compound 575, 1-methyl-3-(4-{4-morpholin-4-yl-1-[1-(pyridin-2-ylmethyl)piperidin-4-yl]-1H-pyrazolo[3,4-d]pyrimidin-6-yl}phenyl)urea], the results for the IC50 in the experiment on breast line MDA468, with prostate line LNCap and at PI3K were 0.5 µM, below 0.027 µM and 0.064 µM, respectively.
The like results for `CNC(=O)Nc1ccc(-c2nc(N3CCOCC3)c3cnn(C4CCN(CC(=O)c5ccccc5)CC4)c3n2)cc1` [Example 333, 1-methyl-3-(4-{4-morpholin-4-yl-1-[1-(2-oxo-2-phenylethyl)piperidin-4-yl]-1H-pyrazolo[3,4-d]pyrimidin-6-yl}phenyl)urea] were, in that order, 0.2 µM, 0.027 µM and 0.023 µM.
The like results for `O=C(NCCF)Nc1ccc(-c2nc(N3CCOCC3)c3cnn(C4CCN(C(=O)c5cccnc5)CC4)c3n2)c(F)c1` [Example 463, 1-(2-fluoroethyl)-3-(3-fluoro-4-{4-morpholin-4-yl-1-[1-(pyridin-3-ylcarbonyl)piperidin-4-yl]-1H-pyrazolo[3,4-d]pyrimidin-6-yl}phenyl)urea] were, in that order, 1.2 µM, 1.2 µM and 1.73 µM.
`CNC(=S)Nc1ccc(-c2nc(N3CCOCC3)c3cnn(C4CCN(C(=O)OC(C)C)CC4)c3n2)cc1` [Compound 831, isopropyl 4-[6-(4-{[(methylamino)carbonothioyl]amino}phenyl)-4-morpholin-4-yl-1H-pyrazolo[3,4-d]pyrimidin-1-yl]piperidine-1-carboxylate]: the IC50 with breast line MDA468 was 0.39 µM; in the experiment with prostate line LNCap, 0.05 µM; at PI3K, 0.236 µM.
Take `O=C(NCCc1ccccc1)Nc1ccc(-c2nc(N3CCOCC3)c3cnn(C4CCN(Cc5ccccc5)CC4)c3n2)cc1` [Compound 505, 1-{4-[1-(1-benzylpiperidin-4-yl)-4-morpholin-4-yl-1H-pyrazolo[3,4-d]pyrimidin-6-yl]phenyl}-3-(2-phenylethyl)urea]: the IC50 worked out at 20 µM in the experiment with breast line MDA468, 1 µM in the experiment with prostate line LNCap and 2.14 µM on PI3K.
Turning to `O=C(NCCF)Nc1ccc(-c2nc(N3CCOCC3)c3cnn(CC(F)(F)F)c3n2)cc1` [Compound 790, 1-(2-fluoroethyl)-3-{4-[4-morpholin-4-yl-1-(2,2,2-trifluoroethyl)-1H-pyrazolo[3,4-d]pyrimidin-6-yl]phenyl}urea], the IC50 turned out to be 0.15 µM in the experiment with breast line MDA468, 0.06 µM in the experiment on prostate line LNCap and 0.314 µM at PI3K.
With `O=C(NCCCc1ccccc1)Nc1ccc(-c2nc(N3CCOCC3)c3cnn(C4CCN(Cc5ccccc5)CC4)c3n2)cc1` [Compound 260, 1-{4-[1-(1-benzylpiperidin-4-yl)-4-morpholin-4-yl-1H-pyrazolo[3,4-d]pyrimidin-6-yl]phenyl}-3-(3-phenylpropyl)urea], the values for the IC50 in the experiment with breast line MDA468, in the experiment with prostate line LNCap and on PI3K were 60 µM, 4.5 µM and 7.03 µM, respectively.
